Columns and labels:
[1] = in vitro; settings: human, MT4 cells
Description: Selectivity index, ratio of CC50 for human MT4 cells to EC50 for HIV1 3B in presence of 10% FBS

[2] = tested on: Human immunodeficiency virus 1; test: Selectivity ratio of EC50 for antiviral activity against EFV-resistant HIV1 selected after 7 passages to EC50 for antiviral activity against wild-type HIV1 3B; assay type: functional
[3] = tested on: Human immunodeficiency virus 1; test: Antiviral activity against HIV1 3B infected in human MT-2 cells by two fold dilution method in presence of 10% FBS, HSA and alpha1-AGP; assay type: functional, organism-based; settings: Human immunodeficiency virus 1, 3B, MT2
[4] = tested on: Human immunodeficiency virus 1; test: Selectivity ratio of EC50 for antiviral activity against NRTI-resistant HIV1 harboring RT-6TAMs mutant gene to EC50 for antiviral activity against wild-type HIV1 3B; assay type: functional
[5] = Cytotoxicity against human SupT1 cells infected with HIV1 3B; assay type: cell-based, SUP-T1; settings: SupT1 cells infected with HIV-1 3B
[6] = tested on: Human immunodeficiency virus 1; test: Selectivity ratio of EC50 for antiviral activity against GS-9160-resistant HIV1 selected after 9 passages to EC50 for antiviral activity against wild-type HIV1 3B; assay type: functional
[7] = tested on: Human immunodeficiency virus 1; test: Selectivity ratio of EC50 for antiviral activity against APV-resistant HIV1 selected after 2 passages to EC50 for antiviral activity against wild-type HIV1 3B; assay type: functional
[8] = tested on: Human immunodeficiency virus 1; test: Selectivity ratio of EC50 for antiviral activity against APV-resistant HIV1 selected after 4 passages to EC50 for antiviral activity against wild-type HIV1 3B; assay type: functional
[9] = tested on: Human immunodeficiency virus 1; test: Selectivity ratio of EC50 for antiviral activity against HIV1 harboring T66I mutation in catalytic core domain of integrase to EC50 for antiviral activity against wild-type HIV1 3B; assay type: functional
[10] = tested on: Human immunodeficiency virus 1; test: Selectivity ratio of EC50 for antiviral activity against 3TC-resistant HIV1 selected after 8 passages to EC50 for antiviral activity against wild-type HIV1 3B; assay type: functional
[11] = tested on: Human immunodeficiency virus 1; test: Selectivity ratio of EC50 for antiviral activity against HIV1 harboring E92V mutation in catalytic core domain of integrase to EC50 for antiviral activity against wild-type HIV1 3B; assay type: functional
[12] = tested on: Human immunodeficiency virus 1; test: Selectivity ratio of EC50 for antiviral activity against GS-9160-resistant HIV1 selected after 8 passages to EC50 for antiviral activity against wild-type HIV1 3B; assay type: functional
[13] = tested on: Human immunodeficiency virus 1; test: Selectivity ratio of EC50 for antiviral activity against HIV1 harboring E92V, G140S and V151A mutation in catalytic core domain of integrase to EC50 for antiviral activity against wild-type HIV1 3B; assay type: functional
[14] = tested on: Human immunodeficiency virus 1; test: Selectivity ratio of EC50 for antiviral activity against NRTI-resistant HIV1 harboring RTK65R mutant gene to EC50 for antiviral activity against wild-type HIV1 3B; assay type: functional
[15] = tested on: Human immunodeficiency virus 1; test: Selectivity ratio of EC50 for antiviral activity against HIV1 harboring V151A mutation in catalytic core domain of integrase to EC50 for antiviral activity against wild-type HIV1 3B; assay type: functional
[16] = tested on: Human immunodeficiency virus 1; test: Selectivity ratio of EC50 for antiviral activity against GS-9160-resistant HIV1 selected after 5 passages to EC50 for antiviral activity against wild-type HIV1 3B; assay type: functional
[17] = in vitro; settings: human, MT2 cells
Description: Selectivity index, ratio of CC50 for human MT2 cells to EC50 for HIV1 3B in presence of 10% FBS

[18] = tested on: Human immunodeficiency virus 1; test: Selectivity ratio of EC50 for antiviral activity against HIV1 harboring Q148K mutation in catalytic core domain of integrase to EC50 for antiviral activity against wild-type HIV1 3B; assay type: functional
[19] = tested on: Human immunodeficiency virus 1; test: Selectivity ratio of EC50 for antiviral activity against HIV1 harboring E92V and V151A mutation in catalytic core domain of integrase to EC50 for antiviral activity against wild-type HIV1 3B; assay type: functional
[20] = tested on: Human immunodeficiency virus 1; test: Selectivity ratio of EC50 for antiviral activity against EFV-resistant HIV1 selected after 3 passages to EC50 for antiviral activity against wild-type HIV1 3B; assay type: functional
[21] = tested on: Human immunodeficiency virus 1; test: Selectivity ratio of EC50 for antiviral activity against PI-resistant HIV1 harboring […], L90M mutant gene to EC50 for antiviral activity against wild-type HIV1 3B; assay type: functional
[22] = tested on: Human immunodeficiency virus 1; test: Antiviral activity against HIV1 3B infected in SupT1 cells assessed as fold increase in viral 2-LTR circles accumulation after […] postinfection by TaqMan real-time PCR; assay type: functional, SUP-T1
[23] = tested on: Human immunodeficiency virus 1; test: Antiviral activity against 0.001 MOI HIV1 BAL infected in human T lymphocyte cells by p24 antigen ELISA in presence of 10% FBS, HSA and alpha1-AGP; assay type: functional, organism-based; settings: Human immunodeficiency virus 1, BAL
[24] = tested on: Human immunodeficiency virus 1; test: Selectivity ratio of EC50 for antiviral activity against HIV1 harboring E138K mutation in catalytic core domain of integrase to EC50 for antiviral activity against wild-type HIV1 3B; assay type: functional
[25] = tested on: Human immunodeficiency virus 1; test: Selectivity ratio of EC50 for antiviral activity against GS-9160-resistant HIV1 selected after 6 passages to EC50 for antiviral activity against wild-type HIV1 3B; assay type: functional
[26] = tested on: Human immunodeficiency virus 1; test: Antiviral activity against HIV1 3B infected in human MT-2 cells by two fold dilution method in presence of 10% FBS; assay type: functional, organism-based; settings: Human immunodeficiency virus 1, 3B, MT2
[27] = tested on: Human immunodeficiency virus 1; test: Selectivity ratio of EC50 for antiviral activity against NNRTI-resistant HIV1 harboring RTY181C mutant gene to EC50 for antiviral activity against wild-type HIV1 3B; assay type: functional
[28] = Selectivity index, ratio of CC50 for human T lymphocyte cells to EC50 for HIV1 BAL in presence of 10% FBS; assay type: toxicity, cell-based
[29] = tested on: Human immunodeficiency virus 1; test: Antiviral activity against 0.04 MOI HIV1 3B infected in human MT-2 cells by […] dilution method in presence of 100% human serum; settings: Human immunodeficiency virus 1, 3B, MT2
[30] = tested on: Human immunodeficiency virus 1; test: Antiviral activity against 0.001 MOI HIV1 BAL infected in human T lymphocyte cells by p24 antigen ELISA in presence of 10% FBS; assay type: functional, organism-based; settings: Human immunodeficiency virus 1, BAL
[31] = tested on: Human immunodeficiency virus 1; test: Antiviral activity against HIV1 infected in SupT1 cells assessed as accumulation of late RT products after 12 hrs; assay type: functional, organism-based; settings: Human immunodeficiency virus 1, SUP-T1, 12 h
[32] = tested on: Human immunodeficiency virus 1; test: Selectivity ratio of EC50 for antiviral activity against NRTI-resistant HIV1 harboring RTM184V mutant gene to EC50 for antiviral activity against wild-type HIV1 3B; assay type: functional
[33] = tested on: Human immunodeficiency virus 1; test: Selectivity ratio of EC50 for antiviral activity against HIV1 harboring N155H mutation in catalytic core domain of integrase to EC50 for antiviral activity against wild-type HIV1 3B; assay type: functional
[34] = tested on: Human immunodeficiency virus 1; test: Selectivity ratio of EC50 for antiviral activity against PI-resistant HIV1 harboring […], V82A and L90M mutant gene to EC50 for antiviral activity against wild-type HIV1 3B; assay type: functional
[35] = tested on: Human immunodeficiency virus 1; test: Selectivity ratio of EC50 for antiviral activity against HIV1 harboring E138K and Q148K mutation in catalytic core domain of integrase to EC50 for antiviral activity against wild-type HIV1 3B; assay type: functional
[36] = tested on: Human immunodeficiency virus 1; test: Selectivity ratio of EC50 for antiviral activity against NNRTI-resistant HIV1 harboring RTK103N mutant gene to EC50 for antiviral activity against wild-type HIV1 3B; assay type: functional
[37] = Cytotoxicity against human MT4 cells infected with HIV1 3B by three fold dilution method in presence of 10% FBS; assay type: cell-based; settings: MT4 cells infected with HIV-1 3B
[38] = tested on: Human immunodeficiency virus 1; test: Selectivity ratio of EC50 for antiviral activity against HIV1 harboring E92Q mutation in catalytic core domain of integrase to EC50 for antiviral activity against wild-type HIV1 3B; assay type: functional

O=C(NCc1ccc(F)cc1)c1nc(N2CCCCS2(=O)=O)c2cccnc2c1O
selectivity ratio [1]: 400
Ratio EC50 [2]: 1.3
EC50 [3]: 43 nM
Ratio EC50 [4]: 1
CC50 [5]: 1900 nM
Ratio EC50 [6]: 49
Ratio EC50 [7]: 2.5
Ratio EC50 [8]: 1.9
Ratio EC50 [9]: 2
Ratio EC50 [10]: 0.8
Ratio EC50 [11]: 8
Ratio EC50 [12]: 65
Ratio EC50 [13]: 371
Ratio EC50 [14]: 1
Ratio EC50 [15]: 5
Ratio EC50 [16]: 2.7
selectivity ratio [17]: 1500
Ratio EC50 [18]: 35
Ratio EC50 [19]: 111
Ratio EC50 [20]: 1.2
Ratio EC50 [21]: 1
fold change (FC) [22]: 3
EC50 [23]: 60 nM
Ratio EC50 [24]: 8
Ratio EC50 [25]: 29
EC50 [26]: 2 nM
Ratio EC50 [27]: 1
selectivity ratio [28]: 700
EC50 [29]: 200 nM
EC50 [30]: 3 nM
EC50 [31]: > 1000 nM
Ratio EC50 [32]: 1
Ratio EC50 [33]: 65
Ratio EC50 [34]: 1
Ratio EC50 [35]: 314
Ratio EC50 [36]: 1
CC50 [37]: 1600 nM
Ratio EC50 [38]: 42

CN(c1c2c(c(O)c3ncccc13)C(=O)N(Cc1ccc(F)cc1)C2)S(C)(=O)=O
selectivity ratio [1]: 457
Ratio EC50 [2]: 0.6
EC50 [3]: 15 nM
Ratio EC50 [4]: 2
CC50 [5]: 600 nM
Ratio EC50 [6]: 51
Ratio EC50 [7]: 1
Ratio EC50 [8]: 1.6
Ratio EC50 [9]: 1
Ratio EC50 [10]: 0.5
Ratio EC50 [11]: 12
Ratio EC50 [12]: 60
Ratio EC50 [13]: 583
Ratio EC50 [14]: 1
Ratio EC50 [15]: 5
Ratio EC50 [16]: 4.3
selectivity ratio [17]: 1900
Ratio EC50 [18]: 23
Ratio EC50 [19]: 104
Ratio EC50 [20]: 0.9
Ratio EC50 [21]: 1
fold change (FC) [22]: 1.9
EC50 [23]: 15 nM
Ratio EC50 [24]: 12
Ratio EC50 [25]: 26
EC50 [26]: 2.1 nM
Ratio EC50 [27]: 1
selectivity ratio [28]: 2670
EC50 [29]: 30 nM
EC50 [30]: 1.5 nM
EC50 [31]: > 1000 nM
Ratio EC50 [32]: 1
Ratio EC50 [33]: 50
Ratio EC50 [34]: 1
Ratio EC50 [35]: 250
Ratio EC50 [36]: 1
CC50 [37]: 320 nM
Ratio EC50 [38]: 32
